US20070128217A1 (priority 2003, published 2007)

Legend:
[1] = test system: antibodies in sera from SARS patients (sera 1a, 1b, 2, 6, 37, 62, London, SARS-yellow, SARS-green); type: binding, human; parameters: Binding of serum 6 to linear peptides of protein X1 of SARS-CoV Urbani / Binding of serum 37 to linear peptides of protein X1 of SARS-CoV Urbani / Binding of serum 6 to looped/cyclic peptide (PEPSCAN-ELISA) / Binding of serum 37 to looped/cyclic peptide (PEPSCAN-ELISA) / Binding of serum 37 to looped/cyclic peptides of protein X1 of SARS-CoV Urbani / Binding of serum 6 to linear peptides of protein X2 / Binding of serum 37 to linear peptides of protein X2 / Binding of serum 37 to looped/cyclic peptides of protein X2 of SARS-CoV Urbani / Binding of serum 6 to linear peptides of protein M of SARS-CoV Urbani / Binding of serum 37 to linear peptides of protein M of SARS-CoV Urbani / Binding of serum 6 to looped/cyclic peptides of protein M of SARS-CoV Urbani / Binding of serum 37 to looped/cyclic peptides of protein M of SARS-CoV Urbani / Binding of serum 6 to linear peptides of protein X3 of SARS-CoV Urbani / Binding of serum 37 to linear peptides of protein X3 of SARS-CoV Urbani / Binding of serum 37 to looped/cyclic peptides of protein X3 of SARS-CoV Urbani / Binding of serum 6 to linear peptides of protein X4 of SARS-CoV Urbani / Binding of serum 37 to linear peptides of protein X4 of SARS-CoV Urbani / Binding of serum 37 to looped/cyclic peptides of protein X4 of SARS-CoV Urbani / Binding of serum 6 to linear peptides of protein X5 of SARS-CoV Urbani / Binding of serum 37 to linear peptides of protein X5 of SARS-CoV Urbani / Binding of serum 37 to looped/cyclic peptides of protein X5 of SARS-CoV Urbani / Binding of serum 6 to linear peptides of protein N of SARS-CoV Urbani / Binding of serum 37 to linear peptides of protein N of SARS-CoV Urbani / Binding of serum 6 to linear peptide (PEPSCAN-ELISA) / Binding of serum 1a to looped/cyclic peptides of protein N of SARS-CoV Urbani / Binding of serum 1b to looped/cyclic peptides of protein N of SARS-CoV Urbani / Binding of serum 2 to looped/cyclic peptides of protein N of SARS-CoV Urbani / Binding of serum 6 to looped/cyclic peptides of protein N of SARS-CoV Urbani / Binding of serum 37 to looped/cyclic peptides of protein N of SARS-CoV Urbani / Binding of serum 62 to looped/cyclic peptides of protein N of SARS-CoV Urbani / Binding of serum London to looped/cyclic peptides of protein N of SARS-CoV Urbani / Binding of serum SARS-green to looped/cyclic peptides of protein N of SARS-CoV Urbani: unit not given here
[2] = test system: control sera (pooled serum of ten healthy LUMC hospital workers; commercial negative donor pooled serum from the Dutch bloodbank); type: binding, human; parameters: Binding of Control serum LUMC to linear peptides / Binding of Control serum Blood-bank to linear peptides / Binding of Control serum LUMC to looped peptides / Binding of Control Serum Blood-Bank to Looped peptides / Binding of Control serum LUMC to linear peptides of the protein M of SARS-CoV Urbani / Binding of Control serum Blood-bank to linear peptides of the protein M of SARS-CoV Urbani / Binding of Control serum LUMC to looped peptides of the protein M of SARS-CoV Urbani / Binding of Control Serum Blood-Bank to Looped peptides of the protein M of SARS-CoV Urbani: unit not given here
[3] = test system: rabbit serum obtained by immunizing a rabbit with the SARS-CoV strain Frankfurt 1; type: binding; parameters: Binding of a rabbit serum to linear peptides / Binding of a rabbit serum to looped peptides / Rabbit serum linear peptides / Rabbit serum looped peptides / Binding of a rabbit serum to linear peptides of protein N of SARS-CoV Urbani (Rabbit serum linear peptides) / Binding of a rabbit serum to looped/cyclic peptides of protein N of SARS-CoV Urbani (Rabbit serum looped peptides): unit not given here

| Sequence | Binding of serum 1a to linear peptides of protein X2 [1] | Binding of serum 1a to looped/cyclic peptides of protein X2 of SARS-CoV Urbani [1] | Binding of serum 1b to linear peptides of protein X2 [1] | Binding of serum 1b to looped/cyclic peptides of protein X2 of SARS-CoV Urbani [1] | Binding of serum 2 to linear peptides of protein X2 [1] | Binding of serum 2 to looped/cyclic peptides of protein X2 of SARS-CoV Urbani [1] | Binding of serum 6 to linear peptides of protein X2 [1] | Binding of serum 6 to looped/cyclic peptides of protein X2 of SARS-CoV Urbani [1] | Binding of serum 37 to linear peptides of protein X2 [1] | Binding of serum 37 to looped/cyclic peptides of protein X2 of SARS-CoV Urbani [1] | Binding of serum 62 to linear peptides of protein X2 [1] | Binding of serum 62 to looped/cyclic peptides of protein X2 of SARS-CoV Urbani [1] | Binding of serum London to linear peptides of protein X2 [1] | Binding of serum London to looped/cyclic peptides of protein X2 of SARS-CoV Urbani [1] | Binding of serum SARS-green to linear peptides of protein X2 [1] | Binding of serum SARS-green to looped/cyclic peptides of protein X2 of SARS-CoV Urbani [1] | Binding of serum SARS-yellow to linear peptides of protein X2 [1] | Binding of serum SARS-yellow to looped/cyclic peptides of protein X2 of SARS-CoV Urbani [1] | Binding of Control Serum Blood-Bank to Looped peptides [2] | Binding of Control serum Blood-bank to linear peptides [2] | further results |
| --- | --- | --- | --- | --- | --- | --- | --- | --- | --- | --- | --- | --- | --- | --- | --- | --- | --- | --- | --- | --- | --- |
| SSSLTSLLKTHRMCK | 0.6 | 0.3 | 0.5 | 0.4 | 0.4 | 0.1 | 0.8 | 0.1 | 0.6 | 0.2 | 0.7 | 0.3 | 0.6 | 0.1 | 0.6 | 0.3 | 0.2 | 0.5 | 0.4 | 1.0 | Binding of Control serum LUMC to linear peptides [2]: 0.7; Binding of Control serum LUMC to looped peptides [2]: 0.4; Binding of a rabbit serum to linear peptides [3]: 0.3; Binding of a rabbit serum to looped peptides [3]: 0.2 |
| FAYSNRNRFLYIIKL |  |  |  |  |  |  |  |  |  |  |  |  |  |  |  |  |  |  |  |  | Binding of serum 1a to linear peptides of protein M of SARS-CoV Urbani [1]: 0.6; Binding of serum 1b to linear peptides of protein M of SARS-CoV Urbani [1]: 0.4; Binding of serum 2 to linear peptides of protein M of SARS-CoV Urbani [1]: 0.7; Binding of serum 6 to linear peptides of protein M of SARS-CoV Urbani [1]: 0.3; Binding of serum 37 to linear peptides of protein M of SARS-CoV Urbani [1]: 0.7; Binding of serum 62 to linear peptides of protein M of SARS-CoV Urbani [1]: 0.7; Binding of serum London to linear peptides of protein M of SARS-CoV Urbani [1]: 0.3; Binding of serum SARS-green to linear peptides of protein M of SARS-CoV Urbani [1]: 0.2; Binding of serum SARS-yellow to linear peptides of protein M of SARS-CoV Urbani [1]: 0.1; Recognition of the peptide by sera of SARS-CoV infected individuals, and form (linear, looped/cyclic) in which it is recognized [1]: recognized in looped/cyclic form; Binding of Control Serum Blood-Bank to Looped peptides of the protein M of SARS-CoV Urbani [2]: 0.4; Binding of Control serum Blood-bank to linear peptides of the protein M of SARS-CoV Urbani [2]: 0.6; Binding of Control serum LUMC to linear peptides of the protein M of SARS-CoV Urbani [2]: 0.4; Binding of Control serum LUMC to looped peptides of the protein M of SARS-CoV Urbani [2]: 0.6; Rabbit serum linear peptides [3]: 0.7; Rabbit serum looped peptides [3]: 0.6 |
| TSLLKTHRMCKYTQS | 0.7 | 0.4 | 0.7 | 0.3 | 0.6 | 0.2 | 0.5 | 0.2 | 0.7 | 0.2 | 0.7 | 0.4 | 0.5 | 0.2 | 0.6 | 0.2 | 0.8 | 0.3 | 0.4 | 1.0 | Binding of Control serum LUMC to linear peptides [2]: 0.9; Binding of Control serum LUMC to looped peptides [2]: 0.4; Binding of a rabbit serum to linear peptides [3]: 0.4; Binding of a rabbit serum to looped peptides [3]: 0.4 |
